The record followed here is patent US20230416262A1, “TRPML MODULATORS” (Casma Therapeutics, Inc., priority 2020, published 2023).

The test system of one test is TFEB. The experiment in a line: TFEB nuclear translocation assay. The settings on record: Homo sapiens; HeLa wt or HeLa TRPML1 KO cells, treated for 2 hrs; ratio of nuclear to ring-region TFEB intensity. The test is classed as cell-based. The procedure, abridged:
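HeLa wild-type or TRPML1 KO cells treated 2 h with compound at 37 °C, PFA-fixed, immunostained for TFEB (Alexa 488) with Hoechst nuclei. Imaged at ×20, four fields/well. Value is ratio of nuclear to perinuclear-ring TFEB intensity, with nuclei counts.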

The next test concerns THP-1 cells. The experiment in a line: Lamp1 lysosomal exocytosis assay. The test is classed as cell-based. The following applies: Homo sapiens, 55 min, 55 min incubation, top dose 20 μM. An outline of the steps: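 THP-1 cells (1e5/well) exposed to a 7-point 3-fold compound series, top final 20 μM, for 55 min at 37°C. Surface Lamp1 then stained with Lamp1-PE on ice in buffer containing 80 μM Dynasore, and read by flow cytometry as PE geometric mean on live, sytox-negative singlets.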

Usually EC50 stands for the midpoint of the concentration-response curve. With `O=C(C1CC1)N1CCC2(CC1)CN(S(=O)(=O)c1ccc(C(F)F)cc1)c1ccccc12` [Compound I-162, 1′-cyclopropanecarbonyl-1-[4-(difluoromethyl)benzenesulfonyl]-1,2-dihydrospiro[indole-3,4′-piperidine]], the values for the concentration for a half-maximal effect (EC50) in the test with TFEB and in the test with THP-1 cells were not below 10 µM and not below 5.01 µM, respectively.
Take `O=S(=O)(c1ccc(C(F)F)cc1)N1CC2(CCN(Cc3cnccn3)CC2)c2ccccc21` [Compound I-163, 1-[4-(difluoromethyl)benzenesulfonyl]-1′-[(pyrazin-2-yl)methyl]-1,2-dihydrospiro[indole-3,4′-piperidine]]: the EC50 with TFEB was not above 2 µM; with THP-1 cells it was not below 5.01 µM.
With `O=S(=O)(c1ccc(C(F)F)cc1)N1CC2(CCN(Cc3ccccn3)CC2)c2ccccc21` [Compound I-164], the EC50 in the test on TFEB is not above 2 µM; in the test on THP-1 cells, not below 5.01 µM.
Consider `O=S(=O)(c1ccc(C(F)F)cc1)N1CC2(CCN(Cc3cccnc3)CC2)c2ccccc21` [Compound I-165, 1-[4-(difluoromethyl)benzenesulfonyl]-1′-[(pyridin-3-yl)methyl]-1,2-dihydrospiro[indole-3,4′-piperidine]], for which the values for the EC50 in the test on TFEB and with THP-1 cells were 2.01 to 8 µM and not below 5.01 µM, respectively.
With `O=S(=O)(c1ccc(C(F)F)cc1)N1CC2(CCN(Cc3ccncc3)CC2)c2ccccc21` [Compound I-166, 1-[4-(difluoromethyl)benzenesulfonyl]-1′-[(pyridin-4-yl)methyl]-1,2-dihydrospiro[indole-3,4′-piperidine]], the EC50 is not above 2 µM in the test on TFEB and not below 5.01 µM in the test with THP-1 cells.
The matching figures for `O=S(=O)(c1ccc(C(F)F)cc1)N1CC2(CCN(Cc3ncccn3)CC2)c2ccccc21` [Compound I-167, 1-[4-(difluoromethyl)benzenesulfonyl]-1′-[(pyrimidin-2-yl)methyl]-1,2-dihydrospiro[indole-3,4′-piperidine]]: 8.01 to 9.99 µM and not below 5.01 µM.
The matching figures for `O=S(=O)(c1ccc(C(F)F)cc1)N1CC2(CCN(Cc3ccccc3)CC2)c2ccccc21` [Compound I-168, 1′-benzyl-1-[4-(difluoromethyl)benzenesulfonyl]-1,2-dihydrospiro[indole-3,4′-piperidine]]: not above 2 µM and not below 5.01 µM.
On the same counts, the results for `O=C(Oc1ccccc1)N1CCC2(CC1)CN(S(=O)(=O)c1ccc(C(F)F)cc1)c1ccccc12` [Compound I-169, phenyl 1-((4-(difluoromethyl)phenyl)sulfonyl)spiro[indoline-3,4′-piperidine]-1′-carboxylate] are not above 2 µM and not below 5.01 µM.
For the compound `O=C(OCC1CC1)N1CCC2(CC1)CN(S(=O)(=O)c1ccc(C(F)F)cc1)c1ccccc12` [Compound I-170, cyclopropylmethyl 1-((4-(difluoromethyl)phenyl)sulfonyl)spiro[indoline-3,4′-piperidine]-1′-carboxylate], the EC50 with TFEB is not above 2 µM; with THP-1 cells it was 0.51 to 1 µM.
In the case of `O=C(CCc1ccccc1)N1CCC2(CC1)CN(S(=O)(=O)c1ccc(C(F)F)cc1)c1ccccc12` [Compound I-174, 1-(1-((4-(difluoromethyl)phenyl)sulfonyl)spiro[indoline-3,4′-piperidin]-1′-y1)-3-phenylpropan-1-one], the EC50 in the test on TFEB was not above 2 µM; in the test on THP-1 cells it was not above 0.5 µM.
The matching figures for `CN(Cc1ccccc1)C(=O)N1CCC2(CC1)CN(S(=O)(=O)c1ccc(C(F)F)cc1)c1ccccc12` [Compound I-178, N-benzyl-1-((4-(difluoromethyl)phenyl)sulfonyl)-N-methylspiro[indoline-3,4′-piperidine]-1′-carboxamide]: 2.01 to 8 µM and 0.51 to 1 µM.
For `CS(=O)(=O)c1ccc(S(=O)(=O)N2CC3(CCN(C(=O)OCc4ccccc4)CC3)c3ccccc32)cc1` [Compound I-180], the EC50 was not above 2 µM with TFEB and not above 0.5 µM in the test with THP-1 cells.
Consider `CC(C)S(=O)(=O)c1ccc(S(=O)(=O)N2CC3(CCN(C(=O)OCc4ccccc4)CC3)c3ccccc32)cc1` [Compound I-181, benzyl 1-[4-(propane-2-sulfonyl)benzenesulfonyl]-1,2-dihydrospiro[indole-3,4′-piperidine]-1′-carboxylate], for which the EC50 with TFEB is not above 2 µM; with THP-1 cells, not above 0.5 µM.
`O=C(OCc1ccccc1)N1CCC2(CC1)CN(S(=O)(=O)c1ccc3c(c1)CCS3(=O)=O)c1ccccc12` [Compound I-182, benzyl 1-((1,1-dioxido-2,3-dihydrobenzo[b]thiophen-5-yl)sulfonyl)spiro[indoline-3,4′-piperidine]-1′-carboxylate]: the EC50 is not above 2 µM in the test on TFEB and not below 5.01 µM in the test on THP-1 cells.
On the same counts, the results for `O=C(OCc1ccccc1)N1CCC2(CC1)CN(C(=O)c1ccccc1)c1ccccc12` [Compound I-184, benzyl 1-benzoyl-1,2-dihydrospiro[indole-3,4′-piperidine]-1′-carboxylate] are not below 10 µM and not below 5.01 µM.
The matching figures for `O=C(OCc1ccccc1)N1CCC2(CC1)CN(S(=O)(=O)c1ccc(S(=O)(=O)C(F)F)cc1)c1ccccc12` [Compound I-186, benzyl 1-((4-((difluoromethyl)sulfonyl)phenyl)sulfonyl)spiro[indoline-3,4′-piperidine]-1′-carboxylate]: not above 2 µM and not above 0.5 µM.
On the same counts, the results for `O=C(OCc1ccccc1)N1CCC2(CC1)CN(S(=O)(=O)c1ccc(C(F)(F)F)nc1)c1ccccc12` [Compound I-187, benzyl 1-((6-(trifluoromethyl)pyridin-3-yl)sulfonyl)spiro[indoline-3,4′-piperidine]-1′-carboxylate] are not above 2 µM and 0.51 to 1 µM.
For `O=C(OCc1ccccc1)N1CCC2(CC1)CN(S(=O)(=O)c1ccc(C3CC3)cc1)c1ccccc12` [Compound I-188, benzyl 1-((4-cyclopropylphenyl)sulfonyl)spiro[indoline-3,4′-piperidine]-1′-carboxylate], the values for the EC50 in the test on TFEB and in the test on THP-1 cells were not above 2 µM and not below 5.01 µM, respectively.
The matching figures for `CC1(C)Cc2cc(S(=O)(=O)N3CC4(CCN(C(=O)OCc5ccccc5)CC4)c4ccccc43)ccc2O1` [Compound I-189, benzyl 1-((2,2-dimethyl-2,3-dihydrobenzofuran-5-yl)sulfonyl)spiro[indoline-3,4′-piperidine]-1′-carboxylate]: not above 2 µM and not above 0.5 µM.
The matching figures for `CC(C)C(=O)N1CC2(CCN(C(=O)OCc3ccccc3)CC2)c2ccccc21` [Compound I-190, benzyl 1-(2-methylpropanoyl)-1,2-dihydrospiro[indole-3,4′-piperidine]-1′-carboxylate]: not below 10 µM and not below 5.01 µM.
Turning to `O=C(OCc1ccccc1)N1CCC2(CC1)CN(C(=O)C1(c3ccccc3)CC1)c1ccccc12` [Compound I-191, benzyl 1-(1-phenylcyclopropanecarbonyl)-1,2-dihydrospiro[indole-3,4′-piperidine]-1′-carboxylate], the EC50 is 2.01 to 8 µM in the test on TFEB and not below 5.01 µM in the test with THP-1 cells.
On to `O=C(Nc1ccc2c(c1)CCO2)N1CCC2(CC1)CN(S(=O)(=O)c1ccc(C(F)F)cc1)c1ccccc12` [Compound I-219, 1-((4-(difluoromethyl)phenyl)sulfonyl)-N-(2,3-dihydrobenzofuran-5-yl)spiro[indoline-3,4′-piperidine]-1′-carboxamide], for which the EC50 was not below 10 µM with TFEB and not below 5.01 µM in the test on THP-1 cells.
For `O=C(Nc1ccc2c(c1)OCO2)N1CCC2(CC1)CN(S(=O)(=O)c1ccc(C(F)F)cc1)c1ccccc12` [Compound I-220, N-(benzo[d][1,3]dioxol-5-yl)-1-((4-(difluoromethyl)phenyl)sulfonyl)spiro[indoline-3,4′-piperidine]-1′-carboxamide], the EC50 in the test on TFEB is 2.01 to 8 µM; with THP-1 cells, not below 5.01 µM.
Take `O=C(Nc1cccc(C(F)F)c1)N1CCC2(CC1)CN(S(=O)(=O)c1ccc(C(F)F)cc1)c1ccccc12` [Compound I-221, N-(3-(difluoromethyl)phenyl)-1-((4-(difluoromethyl)phenyl)sulfonyl)spiro[indoline-3,4′-piperidine]-1′-carboxamide]: the EC50 in the test with TFEB was 2.01 to 8 µM; in the test with THP-1 cells, not below 5.01 µM.
Regarding `O=C(NC1COc2ccccc2C1)N1CCC2(CC1)CN(S(=O)(=O)c1ccc(C(F)F)cc1)c1ccccc12` (centres unmarked) [Compound I-222, N-(chroman-3-yl)-1-((4-(difluoromethyl)phenyl)sulfonyl)spiro[indoline-3,4′-piperidine]-1′-carboxamide], the EC50 in the test with TFEB was not above 2 µM; with THP-1 cells, not below 5.01 µM.
As to `O=C(NC1CCOc2ccccc21)N1CCC2(CC1)CN(S(=O)(=O)c1ccc(C(F)F)cc1)c1ccccc12` (centres unmarked) [Compound I-223, N-(chroman-4-yl)-1-((4-(difluoromethyl)phenyl)sulfonyl)spiro[indoline-3,4′-piperidine]-1′-carboxamide], the concentration giving a half-maximal response (EC50) in the test on TFEB is not above 2 µM; in the test with THP-1 cells, 0.51 to 1 µM.
The matching figures for `O=C(Nc1ccc2c(c1)OCCO2)N1CCC2(CC1)CN(S(=O)(=O)c1ccc(C(F)F)cc1)c1ccccc12` [Compound I-225, 1-((4-(difluoromethyl)phenyl)sulfonyl)-N-(2,3-dihydrobenzo[b][1,4]dioxin-6-yl)spiro[indoline-3,4′-piperidine]-1′-carboxamide]: not below 10 µM and not below 5.01 µM.
With `COc1ccc(NC(=O)N2CCC3(CC2)CN(S(=O)(=O)c2ccc(C(F)F)cc2)c2ccccc23)cc1OC` [Compound I-226, 1-((4-(difluoromethyl)phenyl)sulfonyl)-N-(3,4-dimethoxyphenyl)spiro[indoline-3,4′-piperidine]-1′-carboxamide], the values for the EC50 with TFEB and with THP-1 cells were not below 10 µM and not below 5.01 µM, respectively.
